Patent publication US5486541A (Teva Pharmaceutical Industries, Ltd., priority 1991, dated 1996)
“Also recorded” adds a separate entry of the source. Where two headings read alike, the source gives them in different places.

Assays:
MAO-B [1] = target: T1, MAO-B (Rattus norvegicus, UniProt P19643); experiment: biochemical; assay type: biochemical; settings: for IC50: 20 min preincubation at 37° C., PEA 20 μM, read-out: IC50 for Inhibition of MAO-B in Brain Homogenates
T1 sequence (P19643 1-520): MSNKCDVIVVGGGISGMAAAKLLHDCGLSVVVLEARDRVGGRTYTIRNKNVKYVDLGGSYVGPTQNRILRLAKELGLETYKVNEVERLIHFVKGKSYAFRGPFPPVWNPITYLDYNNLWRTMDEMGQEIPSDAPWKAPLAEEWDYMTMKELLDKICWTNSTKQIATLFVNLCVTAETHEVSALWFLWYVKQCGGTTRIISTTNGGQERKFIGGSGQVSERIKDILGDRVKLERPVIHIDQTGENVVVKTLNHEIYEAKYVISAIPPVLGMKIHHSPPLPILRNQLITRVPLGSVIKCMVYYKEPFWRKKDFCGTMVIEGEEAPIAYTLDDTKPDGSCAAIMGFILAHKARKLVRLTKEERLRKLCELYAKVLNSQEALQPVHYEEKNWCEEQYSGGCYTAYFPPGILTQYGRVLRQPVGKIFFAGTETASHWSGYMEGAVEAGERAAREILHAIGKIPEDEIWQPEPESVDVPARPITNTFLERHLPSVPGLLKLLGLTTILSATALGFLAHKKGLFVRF

MAO-A [2] = experiment: Inhibition of MAO Activity Ex-vivo: Acute Treatment, liver, MAO-A; assay type: in vivo, rat (male Sprague-Dawley derived); settings: rat, ip or po, 2 hours after dosing
Procedure: (§1) These experiments were performed essentially according to the protocol of K. F. Tipton and M. B. H. Youdim in CIBA Symposium No. 39, Editors: G. E. W. Wolstenholme and J. Knight, Elsevier, Amsterdam, 1976, pp. 393-403. The MAO enzyme source was a homogenate of rat brain in 0.3M sucrose which was centrifuged at 600 g for 15 minutes. The supernatant was diluted appropriately in 0.05M phosphate buffer and preincubated with serial dilutions of compounds of interest which are listed below for 20 minutes at 37° C. ^14 C-labeled substrates (2-phenylethylamine, hereinafter PEA; 5-hydroxytryptamine, hereinafter 5-HT) were then added and the incubation continued for a further 20 minutes (PEA) or 30-45 minutes (5-HT). Substrate concentrations used were 20 μM (PEA) or 1 mM (5-HT). In the case of PEA the enzyme concentration was chosen so that not more than 10% of the substrate was metabolized during the course of the reaction. The reaction was then stopped by the addition of tranylcypromine (to final concentration of 1 mM) and the incubate filtered over a small column of Amberlite CG-50; buffered to pH 6.3. The column was washed with 1.5 ml water, the eluates pooled and the radioactive content determined by liquid scintillation spectrometry. Since the amine substrates are totally retained on the column, radioactivity in the eluate indicates the production of neutral and acidic metabolites formed as a result of MAO activity. Activity of MAO in the sample was expressed as a percentage of control activity in the absence of inhibitors after subtraction of appropriate blank values. The activity determined using PEA as a substrate is referred to as MAO B activity, and that determined using 5-HT as a substrate is referred to as MAO A activity.
(§2) Rats (male Sprague-Dawley derived) weighing 250±20 g were treated with the desired compound by intraperitoneal injection (ip) or oral gavage (po) and decapitated 2 hours later. Groups of three rats were used for each dose level of the compound and MAO activity was determined in the brain and liver using the general technique described above. The amount of protein in each incubation was determined using the Folin-Lowry method, and enzyme activity was calculated as nmol substrate metabolized per hour incubation for each mg protein. Activity of MAO in tissues from animals treated with inhibitors was expressed as a percentage of the enzyme activity in a group of control animals which were administered the vehicle alone (water in the case of oral gavage, or 0.9% saline in the case of intraperitoneal injection) and killed as above.

MAO-B [3] = experiment: Inhibition of MAO Activity Ex-vivo: Acute Treatment, brain, MAO-B; assay type: in vivo, rat (male Sprague-Dawley derived); settings: for ED-50 BRAIN MAO-B: rat, ip or po, 2 hours after dosing; for BRAIN MAO-A/MAO-B (measure of selectivity): ratio of ED-50 values, rat brain, ex vivo
[4] = tested on: blood pressure response to tyramine; experiment: Tyramine Potentiation in Vivo (blood pressure response to tyramine); design: species or system rat; settings: for Potentiation of blood pressure response to tyramine: compound 5 mg/kg orally, tyramine 20 mg/kg orally, ratio of areas under the curve of blood pressure
Procedure: On the previous day a tail artery cannulation was performed to enable direct blood pressure measurements. On the experimental day the cannulae were connected to pressure transducers. The animals were unrestrained and were kept in a glass sided open top tank during the pressure measurements. […] The desired compound was administered 30 minutes after the last dose of tyramine. Tyramine was administered again, in increasing doses, as described above, one hour after the desired compound was administered. […] The tyramine potentiating effect was calculated as a ratio between the areas under the curve of blood pressure measured with tyramine alone (20 mg/kg) and that measured after administration of the desired compounds and tyramine.

MAO-A [5] = experiment: Inhibition of MAO Activity Ex-vivo: Acute Treatment, brain, MAO-A; assay type: in vivo, rat (male Sprague-Dawley derived); settings: rat, ip or po, 2 hours after dosing
MAO-B [6] = experiment: Inhibition of MAO Activity Ex-vivo: Acute Treatment, liver, MAO-B; assay type: in vivo, rat (male Sprague-Dawley derived); settings: for ED-50 LIVER MAO-B: rat, ip or po, 2 hours after dosing; for LIVER MAO-A/MAO-B (measure of selectivity): ratio of ED-50 values, rat liver, ex vivo
Procedure: as §1, §2

MAO-A [7] = target: T2, MAO-A (Rattus norvegicus, UniProt P21396); experiment: biochemical; settings: rat brain homogenate; 20 min preincubation at 37° C.; 5-HT 1 mM; read-out: IC50 for Inhibition of MAO-A in Brain Homogenates
T2 sequence (P21396 1-526): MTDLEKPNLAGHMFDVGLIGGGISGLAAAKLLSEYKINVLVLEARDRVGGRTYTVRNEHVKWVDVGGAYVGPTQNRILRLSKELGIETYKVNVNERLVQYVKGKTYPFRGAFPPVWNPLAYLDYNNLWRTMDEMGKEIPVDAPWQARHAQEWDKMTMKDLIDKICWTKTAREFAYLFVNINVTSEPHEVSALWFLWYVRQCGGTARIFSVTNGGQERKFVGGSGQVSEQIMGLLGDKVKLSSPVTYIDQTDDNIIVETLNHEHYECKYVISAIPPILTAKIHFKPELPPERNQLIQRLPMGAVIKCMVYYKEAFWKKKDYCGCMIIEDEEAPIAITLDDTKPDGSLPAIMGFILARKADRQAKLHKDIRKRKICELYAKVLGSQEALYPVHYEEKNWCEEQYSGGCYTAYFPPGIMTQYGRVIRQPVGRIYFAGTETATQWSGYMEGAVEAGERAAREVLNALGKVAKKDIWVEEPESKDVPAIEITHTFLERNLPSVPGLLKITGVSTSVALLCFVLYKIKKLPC

Parkinson's patients = settings: with L-Dopa (and decarboxylase inhibitor); cited from earlier work
[8] = at doses causing nearly complete inhibition of MAO-B; Elsworth et al.; cited from earlier work
[9] = ratio IC50 MAO-A / IC50 MAO-B, rat brain homogenate

| Compound | IC50 (MAO-B [1]; rat brain homogenate) [nM] | ED-50 LIVER MAO-A (MAO-A [2]) [mg/kg] | LIVER MAO-A/MAO-B (measure of selectivity) (MAO-B [6]) | IC50 (MAO-A [7]) [nM] | Selectivity MAO-A/MAO-B (in vitro IC50) (MAO-B [1]; [9]) | ED-50 BRAIN MAO-B (MAO-B [3]) [mg/kg] | BRAIN MAO-A/MAO-B (measure of selectivity) (MAO-B [3]) | ED-50 BRAIN MAO-A (MAO-A [5]) [mg/kg] | ED-50 LIVER MAO-B (MAO-B [6]) [mg/kg] | further results |
| --- | --- | --- | --- | --- | --- | --- | --- | --- | --- | --- |
| C#CCNC1CCc2ccc(F)cc21.Cl (single isomer, unassigned; (+)) [(+)-6-F, (+)-6-Fluoro-N-propargyl-1-aminoindan hydrochloride] | 0.22 | 5.2 | 40 | 2800 | – | – | – | – | – | Selectivity MAO-A/MAO-B (in vitro IC50) (MAO-B [1]): 1244; MAO-B selectivity in vitro (in words) (MAO-B [1]; in vitro): much more selective than the parent non-fluorinated compound and more selective than the other fluorinated derivatives; ED-50 BRAIN MAO-B (MAO-B [3]; hydrochloride, 120 min): 0.14 mg/kg; ED-50 BRAIN MAO-B (MAO-B [3]; listed as (+)-6-F-N-propargyl-1-aminoindan, hydrochloride, 120 min): 0.14 mg/kg; BRAIN MAO-A/MAO-B (measure of selectivity) (MAO-B [3]; hydrochloride): 152; Potentiation of blood pressure response to tyramine [4]: 1.2 fold; tyramine potentiating effect (in words) ([4]; rat, 5 mg/kg oral, listed as (+)-6-F-N-propargyl-1-aminoindan, hydrochloride, 5 mg/kg): lowest potentiating effect as compared to the (+)-5-F and (+)-4-F derivatives; also recorded: does not cause significant potentiation of tyramine; also recorded: a dose 35 times higher results practically in no tyramine potentiation; ED-50 BRAIN MAO-A (MAO-A [5]; hydrochloride, 120 min): 21.3 mg/kg; ED-50 LIVER MAO-B (MAO-B [6]; hydrochloride, 120 min): 0.13 mg/kg |
| C#CCNC1CCc2ccc(F)cc21 (centres unmarked) [Example 6-F, 6-Fluoro-1-propargylaminoindan] | 6.2 | – | – | 4000 | 645 | 0.13 | 170 | 22 | – | – |
| C#CCNC1CCc2cc(F)ccc21.Cl (centres unmarked) [Example 5-F, 5-Fluoro-N-propargyl-1-aminoindan hydrochloride] | 6 | 2.2 | 36.7 | 700 | 116 | 0.4 | 6 | 2.3 | 0.06 | – |
| C#CCNC1CCc2c(F)cc(F)cc21 (single isomer, unassigned; (+)) [(+)-4,6-Difluoro] | 500 | – | – | 800 | 2 | 3.7 | 1 | 2.9 | – | – |
| NCCc1ccc(O)cc1 [Tyramine, reference compound] | – | – | – | – | – | – | – | – | – | effect of tyramine alone on blood pressure (in words) ([4]; tyramine alone, oral, 5, 10 and 20 mg/kg): caused increase of blood pressure |
| C#CCNC1CCc2cc(F)ccc21.Cl (single isomer, unassigned; (+)) [(+)-5-F, (+)-5-Fluoro-N-propargyl-1-aminoindan hydrochloride] | 5.7 | > 0.1 | > 1.4 | 140 | 24 | 0.07 | > 1.4 | > 0.1 | 0.07 | Potentiation of blood pressure response to tyramine [4]: 2.25 fold |
| C#CCNC1CCc2ccccc21 (centres unmarked) [H, N-propargyl-1-aminoindan, reference compound] | – | 5 | – | – | – | 0.07 | – | 1.2 | 0.06 | – |
| C#CCNC1CCc2c(F)cccc21.Cl (single isomer, unassigned; (+)) [(+)-4-F, (+)-4-Fluoro-N-propargyl-1-aminoindan hydrochloride] | 5.2 | > 1.0 | > 5.9 | 340 | 65 | 0.33 | > 3 | > 1.0 | 0.17 | Potentiation of blood pressure response to tyramine [4]: 1.55 fold |
| C#CCN(C)[C@H](C)Cc1ccccc1 [(-)-deprenyl] | – | – | – | – | – | – | – | – | – | clinical effect on addition to L-Dopa treatment (in words) (Parkinson's patients): improvements in akinesia and overall functional capacity as well as the elimination of "on-off" type fluctuations; also recorded: enhances and prolongs the effect of L-Dopa; "cheese effect" of (-)-deprenyl (in words) [8]: not causing the "cheese effect" |
| C#CCNC1CCc2ccc(Cl)cc21.Cl (centres unmarked) [Example 6-Cl, 6-Chloro-N-propargyl-1-aminoindan hydrochloride] | 7.7 | – | – | 6900 | 896 | 1.7 | 5.8 | 10 | – | – |
| C#CCNC1CCc2ccc(F)cc21.Cl (single isomer, unassigned; (-)) [(-)-6-F, (-)-6-Fluoro-N-propargyl-1-aminoindan hydrochloride] | 12000 | – | – | 40000 | – | – | – | – | – | Selectivity MAO-A/MAO-B (in vitro IC50) (MAO-B [1]; ratio IC50 MAO-A / IC50 MAO-B, rat brain homogenate, hydrochloride): 3; ED-50 BRAIN MAO-B (MAO-B [3]; hydrochloride, 120 min): 0.45 mg/kg; BRAIN MAO-A/MAO-B (measure of selectivity) (MAO-B [3]; hydrochloride): 51; ED-50 BRAIN MAO-A (MAO-A [5]; hydrochloride, 120 min): 23 mg/kg; ED-50 LIVER MAO-B (MAO-B [6]; hydrochloride, 120 min): < 0.5 mg/kg |
| C#CCNC1CCc2c(F)cccc21.Cl (centres unmarked) [Example 4-F, 4-Fluoro-N-propargyl-1-aminoindan hydrochloride] | 5.8 | 2.4 | 18.5 | 500 | 86 | 0.22 | 6 | 1.4 | 0.13 | – |
